Measurements: patent publication US20080188498A1, “Pyridopyrimidinone compounds with antimalarial activity” (Radix Pharmaceuticals, Inc., priority 2007, published 2008)

What was measured:
[1] = tested on: Plasmodium berghei KBG-173; test: Blood schizontocidal test, oral dosing, P. berghei in mice; format: in vivo, mouse; settings: days 3-5 postinfection
Procedure: Drugs were mixed in 0.5% hydroxycellulose 0.1% Tween 80 and administered orally b.i.d. on days 3, 4 and 5 postinfection. CD-1 male or female mice, 5 weeks of age, were infected with 5×10^4 parasitized erythrocytes of Plasmodium berghei KBG-173 mm strain. Blood films were taken on day +6 and weekly thereafter until day +60. Parasitemias were calculated and SD90 value (dose suppressing 90% of the parasites in treated groups compared with the infected non-treated controls) on day +6 postinfection. Mortality data was tabulated for 60 days at which time all mice surviving that were blood film negative were considered cured. […]

P. berghei = test: Suppressive blood schizontocidal test, single subcutaneous dose, P. berghei in mice; format: in vivo, mouse; settings: 72 h after infection
Procedure: Mice were treated with a single dose of the compound administered subcutaneously 72 h. after infection. Number of cures is the number of mice surviving, out of five, 60 days postinfection.

[2] = tested on: Plasmodium berghei KBG-173; test: Prophylactic test, oral, P. berghei in mice; format: in vivo, mouse
Text: Drugs were mixed in 0.5% hydroxycellulose 0.1% Tween 80 and administered orally b.i.d. either on day 5, 4, 3, 2, or 1 prior to the infection or 1 or 2 days postinfection. CD-I male or female mice, 5 weeks of age, were infected with 5×10^4 parasitized erythrocytes of Plasmodium berghei KBG-173 mm strain. Blood films were taken on day +6 and weekly thereafter until day+30. […]

mouse = settings: strong liver toxicity; cited from earlier work
[3] = oral dose 0.25 mg/kg/day (total dose 0.75 mg/kg)
[4] = oral dose 1.0 mg/kg/day (total dose 3.0 mg/kg)
[5] = oral dose 4.0 mg/kg/day (total dose 12 mg/kg)
[6] = oral dose 16 mg/kg/day (total dose 48 mg/kg)
[7] = oral dose 64 mg/kg/day (total dose 192 mg/kg)
[8] = single subcutaneous dose 1 mg/kg
[9] = single subcutaneous dose 2 mg/kg
[10] = single subcutaneous dose 4 mg/kg
[11] = single subcutaneous dose 8 mg/kg
[12] = single subcutaneous dose 16 mg/kg
[13] = single subcutaneous dose 32 mg/kg
[14] = single subcutaneous dose 64 mg/kg
[15] = single subcutaneous dose 128 mg/kg
[16] = single dose of 0.5 mg/kg, day of treatment 1
[17] = single dose of 0.5 mg/kg, day of treatment 2
[18] = single dose of 0.5 mg/kg, day of treatment −1
[19] = single dose of 0.5 mg/kg, day of treatment −2

With `CCN(CC)CCCC(C)Nc1ccnc2cc(Cl)ccc12` (centres unmarked) [Chloroquine, reference compound] the “Mice surviving 60 days/Mice infected and treated” value [1, 3] was 0/7, the “Mice surviving 60 days/Mice infected and treated” value [1, 4] was 0/7 and the “Mice surviving 60 days/Mice infected and treated” value [1, 5] was 2/7. The “Mice surviving 60 days/Mice infected and treated” value [1, 6] was 4/7 and the “Mice surviving 60 days/Mice infected and treated” value [1, 7] was 0/7.
In the case of `O=C(CC1NCCC1O)Cn1cnc2cccnc2c1=O` (centres unmarked) [Compound I, 3-[3-(3-Hydroxy-pyrrolidin-2-yl)-2-oxo-propyl]-3H-pyrido[3,2-d]pyrimidin-4-one], the “Mice surviving 60 days/Mice infected and treated” value [1, 3] is reported as 7/7, the “Mice surviving 60 days/Mice infected and treated” value [1, 4] is reported as 7/7 and the “Mice surviving 60 days/Mice infected and treated” value [1, 5] is reported as 7/7. For the same compound, the “Mice surviving 60 days/Mice infected and treated” value [1, 6] was 7/7, the “Mice surviving 60 days/Mice infected and treated” value [1, 7] was 7/7 and the “Mice surviving 60 days/Mice infected and treated” value (P. berghei; [8]) was 4/5. The “Mice surviving 60 days/Mice infected and treated” value (P. berghei; [9]) was 5/5, the “Mice surviving 60 days/Mice infected and treated” value (P. berghei; [10]) was 5/5 and the “Mice surviving 60 days/Mice infected and treated” value (P. berghei; [11]) was 5/5. The “Mice surviving 60 days/Mice infected and treated” value (P. berghei; [12]) was 5/5, the “Mice surviving 60 days/Mice infected and treated” value (P. berghei; [13]) was 5/5 and the “Mice surviving 60 days/Mice infected and treated” value (P. berghei; [14]) was 5/5. The “Mice surviving 60 days/Mice infected and treated” value (P. berghei; [15]) was 5/5, the “Mice surviving day 60/Mice infected and treated” value ([2]; oral, day of treatment 1, dose 0.5 mg/kg) was 5/5 and the “Mice surviving day 60/Mice infected and treated” value ([2]; oral, day of treatment 1, dose 2 mg/kg) was 5/5. For the same compound, the “Mice surviving day 60/Mice infected and treated” value ([2]; oral, day of treatment 1, dose 8 mg/kg) was 5/5, the “Mice surviving day 60/Mice infected and treated” value ([2]; oral, day of treatment 1, dose 32 mg/kg) was 5/5 and the “Mice surviving day 60/Mice infected and treated” value ([2]; oral, day of treatment 2, dose 0.5 mg/kg) was 5/5. For the same compound, the “Mice surviving day 60/Mice infected and treated” value ([2]; oral, day of treatment 2, dose 2 mg/kg) was 5/5, the “Mice surviving day 60/Mice infected and treated” value ([2]; oral, day of treatment 2, dose 8 mg/kg) was 5/5 and the “Mice surviving day 60/Mice infected and treated” value ([2]; oral, day of treatment 2, dose 32 mg/kg) was 5/5. For the same compound, the “Mice surviving day 60/Mice infected and treated” value ([2]; oral, day of treatment −1, dose 0.5 mg/kg) was 5/5, the “Mice surviving day 60/Mice infected and treated” value ([2]; oral, day of treatment −1, dose 2 mg/kg) was 5/5 and the “Mice surviving day 60/Mice infected and treated” value ([2]; oral, day of treatment −1, dose 8 mg/kg) was 5/5. The “Mice surviving day 60/Mice infected and treated” value ([2]; oral, day of treatment −1, dose 32 mg/kg) was 5/5, the “Mice surviving day 60/Mice infected and treated” value ([2]; oral, day of treatment −2, dose 0.5 mg/kg) was 5/5 and the “Mice surviving day 60/Mice infected and treated” value ([2]; oral, day of treatment −2, dose 2 mg/kg) was 5/5. For the same compound, the “Mice surviving day 60/Mice infected and treated” value ([2]; oral, day of treatment −2, dose 8 mg/kg) was 5/5, the “Mice surviving day 60/Mice infected and treated” value ([2]; oral, day of treatment −2, dose 32 mg/kg) was 5/5 and the “Mice surviving day 60/Mice infected and treated” value ([2]; oral, day of treatment −3, dose 0.5 mg/kg) was 0/5. For the same compound, the “Mice surviving day 60/Mice infected and treated” value ([2]; oral, day of treatment −3, dose 2 mg/kg) was 5/5, the “Mice surviving day 60/Mice infected and treated” value ([2]; oral, day of treatment −3, dose 8 mg/kg) was 5/5 and the “Mice surviving day 60/Mice infected and treated” value ([2]; oral, day of treatment −3, dose 32 mg/kg) was 5/5. The “Protection from malaria (oral prophylactic activity)” value ([2]; single dose of 0.5 mg/kg within 2 days preinfection through 2 days post infection) was “completely protected from malaria”.
For `O=C(CC1NCCC1O)Cn1cnc2ccncc2c1=O` (centres unmarked) [Compound II, 3-[3-(3-Hydroxy-pyrrolidin-2-yl)-2-oxo-propyl]-3H-pyrido[4,3-d]pyrimidin-4-one], the “Mice surviving 60 days/Mice infected and treated” value [1, 3] was 7/7, the “Mice surviving 60 days/Mice infected and treated” value [1, 4] was 7/7 and the “Mice surviving 60 days/Mice infected and treated” value [1, 5] was 7/7. The “Mice surviving 60 days/Mice infected and treated” value [1, 6] was 7/7, the “Mice surviving 60 days/Mice infected and treated” value [1, 7] was 7/7 and the “Mice surviving 60 days/Mice infected and treated” value (P. berghei; [8]) was 4/5. For the same compound, the “Mice surviving 60 days/Mice infected and treated” value (P. berghei; [9]) was 5/5, the “Mice surviving 60 days/Mice infected and treated” value (P. berghei; [10]) was 5/5 and the “Mice surviving 60 days/Mice infected and treated” value (P. berghei; [11]) was 5/5. The “Mice surviving 60 days/Mice infected and treated” value (P. berghei; [12]) was 5/5, the “Mice surviving 60 days/Mice infected and treated” value (P. berghei; [13]) was 5/5 and the “Mice surviving 60 days/Mice infected and treated” value (P. berghei; [14]) was 5/5. The “Mice surviving 60 days/Mice infected and treated” value (P. berghei; [15]) was 5/5, the “Mice surviving day 60/Mice infected and treated” value [2, 16] was 5/5 and the “Mice surviving day 60/Mice infected and treated” value [2, 17] was 5/5. The “Mice surviving day 60/Mice infected and treated” value [2, 18] was 5/5 and the “Mice surviving day 60/Mice infected and treated” value [2, 19] was 5/5.
With `O=C(CC1NCCC1O)Cn1cnc2cccc(F)c2c1=O` (centres unmarked) [Compound III, 5-Fluoro-3-[3-(3-hydroxy-pyrrolidin-2-yl)-2-oxo-propyl]-3H-quinazolin-4-one] the “Mice surviving 60 days/Mice infected and treated” value [1, 3] was 5/7, the “Mice surviving 60 days/Mice infected and treated” value [1, 4] was 6/7 and the “Mice surviving 60 days/Mice infected and treated” value [1, 5] was 7/7. The “Mice surviving 60 days/Mice infected and treated” value [1, 6] was 7/7, the “Mice surviving 60 days/Mice infected and treated” value [1, 7] was 7/7 and the “Mice surviving 60 days/Mice infected and treated” value (P. berghei; [8]) was 4/5. The “Mice surviving 60 days/Mice infected and treated” value (P. berghei; [9]) was 5/5, the “Mice surviving 60 days/Mice infected and treated” value (P. berghei; [10]) was 5/5 and the “Mice surviving 60 days/Mice infected and treated” value (P. berghei; [11]) was 5/5. The “Mice surviving 60 days/Mice infected and treated” value (P. berghei; [12]) was 5/5, the “Mice surviving 60 days/Mice infected and treated” value (P. berghei; [13]) was 5/5 and the “Mice surviving 60 days/Mice infected and treated” value (P. berghei; [14]) was 5/5. For the same compound, the “Mice surviving 60 days/Mice infected and treated” value (P. berghei; [15]) was 5/5, the “Mice surviving day 60/Mice infected and treated” value [2, 16] was 5/5 and the “Mice surviving day 60/Mice infected and treated” value [2, 17] was 5/5. The “Mice surviving day 60/Mice infected and treated” value [2, 18] was 5/5 and the “Mice surviving day 60/Mice infected and treated” value [2, 19] was 5/5.
In the case of `O=C(CC1NCCC1O)Cn1cnc2ccc(F)c(F)c2c1=O` (centres unmarked) [Compound IV, 5,6-Difluoro-3-[3-(3-hydroxy-pyrrolidin-2-yl)-2-oxo-propyl]-3H-quinazolin-4-one], the “Mice surviving 60 days/Mice infected and treated” value [1, 3] is reported as 6/7, the “Mice surviving 60 days/Mice infected and treated” value [1, 4] is reported as 7/7 and the “Mice surviving 60 days/Mice infected and treated” value [1, 5] is reported as 7/7. The “Mice surviving 60 days/Mice infected and treated” value [1, 6] was 7/7, the “Mice surviving 60 days/Mice infected and treated” value [1, 7] was 7/7 and the “Mice surviving 60 days/Mice infected and treated” value (P. berghei; [8]) was 4/5. For the same compound, the “Mice surviving 60 days/Mice infected and treated” value (P. berghei; [9]) was 5/5, the “Mice surviving 60 days/Mice infected and treated” value (P. berghei; [10]) was 5/5 and the “Mice surviving 60 days/Mice infected and treated” value (P. berghei; [11]) was 5/5. For the same compound, the “Mice surviving 60 days/Mice infected and treated” value (P. berghei; [12]) was 5/5, the “Mice surviving 60 days/Mice infected and treated” value (P. berghei; [13]) was 5/5 and the “Mice surviving 60 days/Mice infected and treated” value (P. berghei; [14]) was 5/5. For the same compound, the “Mice surviving 60 days/Mice infected and treated” value (P. berghei; [15]) was 5/5, the “Mice surviving day 60/Mice infected and treated” value [2, 16] was 5/5 and the “Mice surviving day 60/Mice infected and treated” value [2, 17] was 5/5. For the same compound, the “Mice surviving day 60/Mice infected and treated” value [2, 18] was 5/5 and the “Mice surviving day 60/Mice infected and treated” value [2, 19] was 5/5.
With `O=C(CC1NCCC1O)Cn1cnc2cccc(C(F)(F)F)c2c1=O` (centres unmarked) [Compound V, 3-[3-(3-Hydroxy-pyrrolidin-2-yl)-2-oxo-propyl]-5-trifluoromethyl-3H-quinazolin-4-one] the “Mice surviving 60 days/Mice infected and treated” value [1, 3] was 7/7, the “Mice surviving 60 days/Mice infected and treated” value [1, 4] was 7/7 and the “Mice surviving 60 days/Mice infected and treated” value [1, 5] was 7/7. The “Mice surviving 60 days/Mice infected and treated” value [1, 6] was 7/7, the “Mice surviving 60 days/Mice infected and treated” value [1, 7] was 7/7 and the “Mice surviving 60 days/Mice infected and treated” value (P. berghei; [8]) was 4/5. The “Mice surviving 60 days/Mice infected and treated” value (P. berghei; [9]) was 5/5, the “Mice surviving 60 days/Mice infected and treated” value (P. berghei; [10]) was 5/5 and the “Mice surviving 60 days/Mice infected and treated” value (P. berghei; [11]) was 5/5. For the same compound, the “Mice surviving 60 days/Mice infected and treated” value (P. berghei; [12]) was 5/5, the “Mice surviving 60 days/Mice infected and treated” value (P. berghei; [13]) was 5/5 and the “Mice surviving 60 days/Mice infected and treated” value (P. berghei; [14]) was 5/5. For the same compound, the “Mice surviving 60 days/Mice infected and treated” value (P. berghei; [15]) was 5/5, the “Mice surviving day 60/Mice infected and treated” value [2, 16] was 5/5 and the “Mice surviving day 60/Mice infected and treated” value [2, 17] was 5/5. For the same compound, the “Mice surviving day 60/Mice infected and treated” value [2, 18] was 5/5 and the “Mice surviving day 60/Mice infected and treated” value [2, 19] was 5/5.
With `O=C(C[C@H]1NCCC[C@@H]1O)Cn1cnc2ccccc2c1=O` [Febrifugine, reference compound] the “Mice surviving 60 days/Mice infected and treated” value [1, 3] was 1/7, the “Mice surviving 60 days/Mice infected and treated” value [1, 4] was 2/7 and the “Mice surviving 60 days/Mice infected and treated” value [1, 5] was 5/7. For the same compound, the “Mice surviving 60 days/Mice infected and treated” value [1, 6] was 0/7, the “Mice surviving 60 days/Mice infected and treated” value [1, 7] was 0/7 and the “Dosage at which mouse toxic death occurred” value (mouse) was 10 mg/kg/day.
